Reference: patent US9757353B2, “Methods of inducing anesthesia” (THE REGENTS OF THE UNIVERSITY OF CALIFORNIA, priority 2012, dated 2017)

Tests used:
[1] = target: GABAA receptor; settings: read-out: EC50, positive modulator of GABAA receptor currents; cited from earlier work
[2] = tested on: 3-transmembrane (TM3) and 4-transmembrane (TM4) receptors; settings: cited from earlier work
[3] = tested on: oocyte; experiment: Cytotoxicity during oocyte electrophysiology studies; assay type: cell-based, Xenopus laevis
Description: These compounds are not preferred. Other structures previously known to be highly toxic to animals or humans (such as silanes and boranes) are not preferred.
(§1) Oocyte Collection and Receptor Expression. An ovary from tricaine-anesthetized Xenopus laevis frogs was surgically removed using a protocol approved by the Institutional Animal Care and Use Committee at the University of California, Davis. Following manual disruption of the ovarian lobule septae, the ovary was incubated in 0.2% Type I collagenase (Worthington Biochemical, Lakewood, N.J.) to defolliculate oocytes which were washed and stored in fresh and filtered modified Barth's solution composed of 88 mM NaCl, 1 mM KCl, 2.4 mM NaHCO3, 20 mM HEPES, 0.82 mM MgSO4, 0.33 mM Ca(NO3)2, 0.41 mM CaCl2, 5 mM sodium pyruvate, gentamycin, penicillin, streptomycin, and corrected to pH=7.4. All salts and antibiotics were A.C.S. grade (Fisher Scientific, Pittsburgh, Pa.).

[4] = target: T1, NMDA (NR1/NR2A) receptors (Rattus norvegicus, UniProt P35439+Q00959); experiment: Oocyte two-electrode voltage clamp, NMDA receptor currents; assay type: cell-based; settings: saturating aqueous concentration
T1 construct: expressed in transfected cells; host or cells: Xenopus laevis oocytes, injected with in vitro transcribed RNA (1:1), clones a gift from Dr. R. A. Harris
Description: Methods: GABAA (α1β2γ2s) or NMDA (NR1/NR2A) receptors were expressed in oocytes and studied using standard two-electrode voltage clamp techniques. Hydrocarbons from 14 different organic functional groups were studied at saturated concentrations, and compounds within each group differed only by the carbon number at the ω-position or within a saturated ring. An effect on GABAA or NMDA receptors was defined as a 10% or greater reversible current change from baseline that was statistically different from zero.
as §1
Clones used were provided as a gift from Dr. R. A. Harris (University of Texas, Austin) and were sequenced and compared to references in the National Center for Biotechnology Information database to confirm the identity of each gene. GABAA receptors were expressed using clones for the human GABAA α1 and the rat GABAA β2 and γ2s subunits in pCIS-II vectors. […] In separate oocytes, glutamate receptors were expressed using rat NMDA NR1 clones in a pCDNA3 vector and rat NMDA NR2A clones in a Bluescript vector. RNA encoding each subunit was prepared using a commercial transcription kit (T7 mMessage mMachine, Ambion, Austin, Tex.) was mixed in a 1:1 ratio, and 1-10 ng of total RNA was injected into oocytes and studied 1-2 days later.
NMDA Receptor Electrophysiology Studies. […] Briefly, baseline perfusion solutions were the same as for GABAA with the substitution of equimolar BaCl2 for calcium salts and the addition of 0.1 mM EGTA; this constituted barium frog Ringer's solution (BaFR). Agonist solutions for NMDA studies also contained 0.1 mM glutamate (E) and 0.01 mM glycine (G) to constitute a BaFREG solution.
The syringe pump and perfusion chamber apparatus as well as the clamp holding potential and baseline-agonist exposure protocols were identical to that described for the GABAA studies. The same test compounds, concentrations, and preparative methods were used in NMDA voltage clamp studies as in the GABAA voltage clamp studies (Table 2).
Response Calculations and Data Analysis. Modulating drug responses were calculated as the percent of the control (baseline) peak as follows:
[formula] where ID and IB were the peak currents measured during agonist+drug and agonist baseline perfusions, respectively. When present, direct receptor activation by a drug was similarly calculated as a percent of the agonist response. […] A lack of receptor response (cut-off) was defined as a <10% change from baseline current that was statistically indistinguishable from zero using a two-tailed Student t-test.

[5] = tested on: ND4 mice; experiment: Loss of righting reflex in ND4 mice; assay type: in vivo; settings: after 2 hours of anesthesia
Description: HFCP caused loss of righting reflex (a surrogate measure of unconsciousness) in 4 healthy ND4 mice at 1.0±0.2 (mean±SD) percent of 1 atmosphere. […] After 2 hours of anesthesia, mice were awake after about 1 minute of discontinuing HFCP administration. […] Despite a lack of NMDA receptor effects, 1,1,2,2,3,3,4-heptafluorocyclopentane is able to produce the desired pharmacologic endpoints of unconsciousness and immobility that appears similar to desirable effects produced by conventional agents.

[6] = tested on: heart, lung, kidney and liver tissues; experiment: Histopathology after anesthesia; assay type: in vivo, mice; settings: tissues collected 2 days later
[7] = tested on: glycine; experiment: Glycine receptor modulation in vitro; assay type: cell-based
[8] = tested on: some inhibitory potassium channels; experiment: Inhibitory potassium channel modulation in vitro; assay type: cell-based
[9] = target: GABAA (α1β2γ2s) receptors (UniProt P14867+P18508+P63138); experiment: Oocyte two-electrode voltage clamp, GABAA receptor currents; settings: saturating aqueous concentration
Description: GABAA receptors were expressed using clones for the human GABAA α1 and the rat GABAA β2 and γ2s subunits in pCIS-II vectors. […] These plasmid ratios ensured incorporation of the γ-subunit into expressed receptors, as confirmed via receptor potentiation to 10 μM chlordiazepoxide or insensitivity to 10 μM zinc chloride during co-application with GABA. In separate oocytes, glutamate receptors were expressed using rat NMDA NR1 clones in a pCDNA3 vector and rat NMDA NR2A clones in a Bluescript vector. RNA encoding each subunit was prepared using a commercial transcription kit (T7 mMessage mMachine, Ambion, Austin, Tex.) was mixed in a 1:1 ratio, and 1-10 ng of total RNA was injected into oocytes and studied 1-2 days later.
Oocytes were studied in a 250 μL linear-flow perfusion chamber with solutions administered by syringe pump at 1.5 ml/min with gastight glass syringes and Teflon tubing. Oocyte GABAA currents were studied using standard two-electrode voltage clamping techniques at a holding potential of 80 mV using a 250 μL channel linear-flow perfusion chamber with solutions administered by syringe pump at 1.5 mL/min.
After FR perfusion for 5 min, oocytes were exposed to 30 sec FR-GABA followed by another 5 min FR washout; this was repeated until stable GABAA-elicited peaks were obtained. Next, FR containing a saturated solution of the study drug (Table 2)—or for gaseous study compounds a vapor pressure equal to 90% of barometric pressure with balance oxygen—was used to perfuse the oocyte chamber for 2 min followed by perfusion with a FR-GABA solution containing the identical drug concentration for 30 sec.
[formula] where ID and IB were the peak currents measured during agonist+drug and agonist baseline perfusions, respectively. When present, direct receptor activation by a drug was similarly calculated as a percent of the agonist response. Average current responses for each drug and channel were described by mean±SD. A lack of receptor response (cut-off) was defined as a <10% change from baseline current that was statistically indistinguishable from zero using a two-tailed Student t-test.

[10] = tested on: GABAA-dependent pyramidal cells; settings: hippocampus; cited from earlier work
[11] = tested on: NMDA-dependent CA1 neurons; settings: hippocampus; cited from earlier work

T1 sequence (Q00959 23-1464, other chains not shown): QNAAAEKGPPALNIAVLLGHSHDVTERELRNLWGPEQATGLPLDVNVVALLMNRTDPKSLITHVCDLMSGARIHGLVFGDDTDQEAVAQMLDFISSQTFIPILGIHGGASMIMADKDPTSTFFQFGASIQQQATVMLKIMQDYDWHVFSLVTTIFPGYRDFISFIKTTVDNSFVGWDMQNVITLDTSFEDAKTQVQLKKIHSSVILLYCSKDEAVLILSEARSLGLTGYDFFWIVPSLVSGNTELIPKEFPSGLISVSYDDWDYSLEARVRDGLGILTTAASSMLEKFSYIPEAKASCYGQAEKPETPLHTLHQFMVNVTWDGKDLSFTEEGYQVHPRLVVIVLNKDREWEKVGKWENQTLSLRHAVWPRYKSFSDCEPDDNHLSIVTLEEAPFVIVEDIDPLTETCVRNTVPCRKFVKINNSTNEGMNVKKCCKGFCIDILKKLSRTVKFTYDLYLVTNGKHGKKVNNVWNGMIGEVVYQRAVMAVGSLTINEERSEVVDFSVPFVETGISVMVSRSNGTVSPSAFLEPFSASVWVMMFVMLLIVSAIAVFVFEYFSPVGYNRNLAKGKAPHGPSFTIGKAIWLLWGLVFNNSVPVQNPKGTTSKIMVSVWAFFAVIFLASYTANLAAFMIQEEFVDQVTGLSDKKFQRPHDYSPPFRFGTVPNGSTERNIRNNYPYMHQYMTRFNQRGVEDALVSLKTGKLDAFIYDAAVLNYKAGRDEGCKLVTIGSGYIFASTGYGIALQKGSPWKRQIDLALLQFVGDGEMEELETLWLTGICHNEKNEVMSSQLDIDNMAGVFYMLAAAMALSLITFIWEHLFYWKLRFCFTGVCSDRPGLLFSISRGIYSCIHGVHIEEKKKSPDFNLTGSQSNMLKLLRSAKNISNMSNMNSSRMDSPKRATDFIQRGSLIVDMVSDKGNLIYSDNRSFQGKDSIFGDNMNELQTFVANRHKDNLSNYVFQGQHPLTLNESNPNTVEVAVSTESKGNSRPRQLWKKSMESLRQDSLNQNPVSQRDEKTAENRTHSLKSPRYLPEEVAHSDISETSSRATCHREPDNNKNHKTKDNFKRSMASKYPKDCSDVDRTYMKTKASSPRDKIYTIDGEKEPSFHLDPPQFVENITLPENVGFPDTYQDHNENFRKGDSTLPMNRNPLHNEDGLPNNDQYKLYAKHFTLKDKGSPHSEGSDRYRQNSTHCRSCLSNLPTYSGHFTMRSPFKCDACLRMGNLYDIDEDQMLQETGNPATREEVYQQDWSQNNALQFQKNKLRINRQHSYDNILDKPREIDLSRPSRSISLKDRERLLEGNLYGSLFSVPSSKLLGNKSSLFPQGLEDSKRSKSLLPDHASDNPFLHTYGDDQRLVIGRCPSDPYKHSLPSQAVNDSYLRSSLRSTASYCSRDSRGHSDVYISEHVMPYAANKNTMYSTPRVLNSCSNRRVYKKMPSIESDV
GABAA (α1β2γ2s) receptors, sequence (P14867 28-456): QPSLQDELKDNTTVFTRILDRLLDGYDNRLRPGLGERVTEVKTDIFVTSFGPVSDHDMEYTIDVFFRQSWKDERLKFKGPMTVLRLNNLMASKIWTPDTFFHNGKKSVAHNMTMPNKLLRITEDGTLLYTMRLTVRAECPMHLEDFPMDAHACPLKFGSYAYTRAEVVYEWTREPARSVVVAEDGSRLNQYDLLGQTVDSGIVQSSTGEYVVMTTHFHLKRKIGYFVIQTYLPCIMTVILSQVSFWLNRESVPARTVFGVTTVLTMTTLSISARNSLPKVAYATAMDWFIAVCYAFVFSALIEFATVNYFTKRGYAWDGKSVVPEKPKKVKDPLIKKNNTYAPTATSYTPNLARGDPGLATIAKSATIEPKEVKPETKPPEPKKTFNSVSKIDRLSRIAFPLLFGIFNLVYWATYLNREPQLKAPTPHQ
GABAA (α1β2γ2s) receptors, sequence (P63138 25-474 limits assumed): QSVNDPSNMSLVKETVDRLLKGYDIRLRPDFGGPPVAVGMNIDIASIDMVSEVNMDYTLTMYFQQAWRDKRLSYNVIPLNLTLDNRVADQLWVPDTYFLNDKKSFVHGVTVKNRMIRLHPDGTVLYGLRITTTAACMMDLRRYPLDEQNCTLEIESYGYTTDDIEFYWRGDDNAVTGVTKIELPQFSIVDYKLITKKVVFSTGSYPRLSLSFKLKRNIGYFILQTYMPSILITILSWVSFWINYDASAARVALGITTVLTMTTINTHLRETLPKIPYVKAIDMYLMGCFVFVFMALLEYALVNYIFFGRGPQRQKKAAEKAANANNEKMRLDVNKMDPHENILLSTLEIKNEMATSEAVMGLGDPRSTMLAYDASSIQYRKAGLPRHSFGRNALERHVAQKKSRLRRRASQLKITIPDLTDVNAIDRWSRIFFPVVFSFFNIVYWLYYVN
GABAA (α1β2γ2s) receptors, sequence (P18508 39-466): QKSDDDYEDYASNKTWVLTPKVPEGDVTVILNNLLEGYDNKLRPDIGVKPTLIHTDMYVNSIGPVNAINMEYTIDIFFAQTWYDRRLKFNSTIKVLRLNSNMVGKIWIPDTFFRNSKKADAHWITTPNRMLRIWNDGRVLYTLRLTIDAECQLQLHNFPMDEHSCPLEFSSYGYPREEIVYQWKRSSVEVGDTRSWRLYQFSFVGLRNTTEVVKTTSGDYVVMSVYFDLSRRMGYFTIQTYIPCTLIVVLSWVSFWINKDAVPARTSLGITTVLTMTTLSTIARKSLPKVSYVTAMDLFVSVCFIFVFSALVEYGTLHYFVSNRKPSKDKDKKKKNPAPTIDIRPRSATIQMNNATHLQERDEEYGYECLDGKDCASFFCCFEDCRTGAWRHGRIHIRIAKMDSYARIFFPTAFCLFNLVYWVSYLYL

## CC(C)c1cccc(C(C)C)c1O [Propofol]
[1]
  EC50: ~60 µM
[2]
  ion channel modulation (TM3 / TM4 receptors), FIG. 2: modulate both 3-transmembrane (TM3) and TM4 receptors

## C1CCNC1 [pyrrolidine]
[3]
  cytotoxicity during oocyte electrophysiology studies: caused cytotoxicity

## FC1CC(F)(F)C(F)(F)C1(F)F (stereo not drawn) [HFCP, 1,1,2,2,3,3,4-heptafluorocyclopentane]
[4]
  NMDA receptor modulation (in words): no effect on NMDA receptors
[5]
  time to awake after discontinuing administration: about 1 minute
[6]
  histopathology of heart, lung, kidney and liver: no evidence of inflammation or toxicity
[7]
  glycine receptor modulation (in words): potentiates
[8]
  inhibitory potassium channel modulation (in words): potentiates
[9]
  GABAA receptor modulation (in words): potentiates GABAA

## FC1(F)C(F)(F)C(F)(Cl)C1(F)Cl (stereo not drawn) [1,2-dichlorohexafluorocyclobutane]
[2]
  ion channel modulation (TM3 / TM4 receptors), FIG. 2: modulate 4-transmembrane receptors (TM4) or neither receptor type
[10]
  depression of GABAA-dependent pyramidal cells: fail to depress
[11]
  depression of NMDA-dependent CA1 neurons: fail to depress
